Test system: 323965-272-R-J2-PDC complex spheroid growth, % test/control
Assay: Anticancer human tumor 323965-272-R-J2-PDC patient-derived pancreatic carcinoma cell line growth inhibition [Asc]
Conditions: for IC50: curve of first compound; for viability, T/C: stronger effect = lower value
Method in brief: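 Concentration series start at each agent's clinical Cmax, or at 10 microM when none is established, and drop in half-log steps; agents are applied alone or together to complex spheroids built with HUVEC and hMSC.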
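Further: compound exposure lasted 7 days starting three days after spheroid seeding.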
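Wherever viability, T/C is given: 100% = DMSO vehicle control wells with viability set relative to vehicle.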

Question: How did the IC50 (second compound 0.0316 µM) turn out when Cc1nc(N2CCC3(CC2)COC(C)C3N)c(CO)nc1Sc1ccnc(N)c1Cl (configuration not stated) + Cc1c(S(C)(=O)=O)c(-c2cc(F)cc(N3CCN(c4ccc(NS(=O)(=O)c5ccc(NC(CCN6CCC(C(=O)OCCCP(=O)(O)O)CC6)CSc6ccccc6)c(S(=O)(=O)C(F)(F)F)c5)cc4)CC3)c2)c(-c2ccc(Cl)cc2)n1C(C)C was run?
Answer: 1610 nM

Question: What about the IC50 (second compound 0.1 µM) of the same compound?
Answer: 981 nM

Question: What about the IC50 (second compound 0.316 µM) of the same compound?
Answer: 809 nM

Question: What about the IC50 (second compound 1 µM) of the same compound?
Answer: 281 nM

Question: And the IC50 (second compound 3.16 µM)?
Answer: 85.9 nM

Question: What about the IC50 (second compound 10 µM) of the same compound?
Answer: 59.2 nM

Question: What about the viability, T/C (second compound 0.0316 µM, first compound 0.00949 µM) of the same compound?
Answer: 92.9%

Question: And the viability, T/C (second compound 0.0316 µM, first compound 0.03 µM)?
Answer: 87.9%

Question: What about the viability, T/C (second compound 0.0316 µM, first compound 0.0949 µM) of the same compound?
Answer: 79.6%

Question: And the viability, T/C (second compound 0.0316 µM, first compound 0.3 µM)?
Answer: 67.8%

Question: And the viability, T/C (second compound 0.0316 µM, first compound 0.949 µM)?
Answer: 54.9%

Question: What about the viability, T/C (second compound 0.0316 µM, first compound 3 µM) of the same compound?
Answer: 44.2%

Question: What about the viability, T/C (second compound 0.1 µM, first compound 0.00949 µM) of the same compound?
Answer: 105%

Question: And the viability, T/C (second compound 0.1 µM, first compound 0.03 µM)?
Answer: 96.2%

Question: What about the viability, T/C (second compound 0.1 µM, first compound 0.0949 µM) of the same compound?
Answer: 70.6%

Question: What about the viability, T/C (second compound 0.1 µM, first compound 0.3 µM) of the same compound?
Answer: 69%

Question: What about the viability, T/C (second compound 0.1 µM, first compound 0.949 µM) of the same compound?
Answer: 49.1%

Question: And the viability, T/C (second compound 0.1 µM, first compound 3 µM)?
Answer: 37.8%

Question: What about the viability, T/C (second compound 0.316 µM, first compound 0.00949 µM) of the same compound?
Answer: 92.2%

Question: What about the viability, T/C (second compound 0.316 µM, first compound 0.03 µM) of the same compound?
Answer: 87.2%

Question: And the viability, T/C (second compound 0.316 µM, first compound 0.0949 µM)?
Answer: 76.1%

Question: And the viability, T/C (second compound 0.316 µM, first compound 0.3 µM)?
Answer: 62.2%

Question: And the viability, T/C (second compound 0.316 µM, first compound 0.949 µM)?
Answer: 48.5%

Question: What about the viability, T/C (second compound 0.316 µM, first compound 3 µM) of the same compound?
Answer: 35.9%

Question: And the viability, T/C (second compound 1 µM, first compound 0.00949 µM)?
Answer: 81%

Question: And the viability, T/C (second compound 1 µM, first compound 0.03 µM)?
Answer: 78%

Question: What about the viability, T/C (second compound 1 µM, first compound 0.0949 µM) of the same compound?
Answer: 64.8%

Question: And the viability, T/C (second compound 1 µM, first compound 0.3 µM)?
Answer: 48.9%

Question: And the viability, T/C (second compound 1 µM, first compound 0.949 µM)?
Answer: 36.1%

Question: And the viability, T/C (second compound 1 µM, first compound 3 µM)?
Answer: 28.1%

Question: What about the viability, T/C (second compound 3.16 µM, first compound 0.00949 µM) of the same compound?
Answer: 72.8%

Question: What about the viability, T/C (second compound 3.16 µM, first compound 0.03 µM) of the same compound?
Answer: 64.3%

Question: And the viability, T/C (second compound 3.16 µM, first compound 0.0949 µM)?
Answer: 45.8%

Question: And the viability, T/C (second compound 3.16 µM, first compound 0.3 µM)?
Answer: 37.6%

Question: And the viability, T/C (second compound 3.16 µM, first compound 0.949 µM)?
Answer: 29.6%

Question: And the viability, T/C (second compound 3.16 µM, first compound 3 µM)?
Answer: 19.6%

Question: What about the viability, T/C (second compound 10 µM, first compound 0.00949 µM) of the same compound?
Answer: 73.3%

Question: And the viability, T/C (second compound 10 µM, first compound 0.03 µM)?
Answer: 59.3%

Question: And the viability, T/C (second compound 10 µM, first compound 0.0949 µM)?
Answer: 41.7%

Question: And the viability, T/C (second compound 10 µM, first compound 0.3 µM)?
Answer: 34.5%

Question: And the viability, T/C (second compound 10 µM, first compound 0.949 µM)?
Answer: 23.2%

Question: And the viability, T/C (second compound 10 µM, first compound 3 µM)?
Answer: 15%
